Measured values reported in patent publication US10039743B2, “Method of treating presbyopia using dithiol compounds and their derivatives” (Encore Health, LLC, priority 2009, dated 2018).

What was measured:
[1] = system: protein disulfides in the mouse lenses; experiment: Decrease in disulfide bonds: protein SH / SS groups in lens homogenates by differential fluorescent alkylation; type: cell-based
Experimental: FIG. 5 depicts a scattergram of the percent of the total protein SH groups in disulfide bonds. Free SH groups were alkylated with 4-acctamido-4′-maleimidylstilbcne-2,2′-sulfonic acid (c, 1 μM, 5 μM, 9.6 μM, 50 μM, 96 μM) or 7-diethylamino-3-(4′maleimidylphenyl)-4-methyl coumarin (500 μM, and 500 μM c). Following removal of the first alkylating agent, the S—S bonds were reduced and alkylated with fluorescein-5-maleimide. Absorption spectra were used to calculated total protein (A280 nm), free protein SH (A322 or A384), and protein SS (A490) using the appropriate extinction coefficients. The symbol $ indicates statistically significant difference of mean with mean of control (c, p≤0.05).
Mouse lenses were homogenized in a denaturing buffer containing a fluorescent alkylating agent to modify the free SH groups. After removing the alkylating agent homogenates were reduced and alkylated with a different fluorescent alkylating agent. Absorption spectra of the modified proteins were used to calculate free protein SH and protein SS groups.

mouse lenses = experiment: Increase in elasticity: change in lens diameter (ΔD) under coverslip load in lens organ culture; type: cell-based; conditions: lipoic acid at concentrations ≥9.6 μM, 8-15 hours incubation, vs control; p<0.0001
Experimental: The relative change in Young's modulus (E) can be calculated as the cubic value derived from the ΔD of the control divided by the ΔD of the experimental or E fractional change=(ΔD con/ΔDexp)^3. Pairs of mouse lenses were incubated in medium 200 supplemented with an antibiotic, an antimycotic, in the presence or absence of lipoic acid (concentrations ranging from 0.5 μM to 500 μM) for 8-15 hours. Each lens was removed from medium, weighed, and photographed on a micrometer scale. A coverslip of known weight (0.17899±0.00200 g) was placed on the lens, and the lens was photographed again on the micrometer scale. The diameter of each lens with and without the coverslip was determined from the photographs. The change in lens diameter produced by the force (coverslip) was computed ΔD=(Dwithcoverslip−Dwithoutcoverslip).

[2] = cited from earlier work

Row | Compound | percent of total protein SH groups in disulfide bonds, mean vs 500 μM control ([1]; 500 μM lipoic acid vs 500 μM control, p=0.027) | protein disulfides (percent of total protein SH groups in disulfide bonds) ([1]; lipoic acid at concentrations ≥9.6 μM, vs control, p≤0.05) | change in lens diameter produced by the force (coverslip), ΔD (mouse lenses) | limit of solubility in aqueous solution [2]
1 | O=C(O)CCCCC1CCSS1 (stereo not shown) [lipoic acid, 5-(1,2-dithiolan-3-yl)pentanoic acid] | significantly different | statistically significant decrease | statistically significant increase | –
2 | N[C@@H](CSSC[C@H](N)C(=O)O)C(=O)O [cystine, 3,3′-disulanedylbis(2-aminopropanoic acid)] | – | – | – | 20 µM
